Converted amounts (≈) assume the structure as drawn.
Tests used:
[1] = test system: Haemophilus influenzae ATCC 49247; assay: MIC, broth microdilution (CLSI) versus planktonic bacteria; format: cell-based; conditions: ATCC49247; Haemophilus influenzae ATCC 49247; 16-20 h; mode of three independent experiments; read-out: MIC, Hi ATCC 49247
[2] = test system: Staphylococcus aureus ATCC 29213; assay: as above; format: cell-based; conditions: ATCC29213; Staphylococcus aureus ATCC 29213; 16-20 h; mode of three independent experiments; read-out: MIC, Sa ATCC 29213
[3] = test system: human hepatic cell line (HepG2 ATCC HB-8065); assay: Human cell viability assay (CellTiter-Glo); conditions: Homo sapiens, HepG2, 24 h, read-out: IC50 (μg/mL) HepG2
[4] = test system: Pseudomonas aeruginosa ATCC 27853; assay: MIC, broth microdilution (CLSI) versus planktonic bacteria; format: cell-based; conditions: ATCC27853; Pseudomonas aeruginosa ATCC 27853; 16-20 h; mode of three independent experiments; read-out: MIC, Pa ATCC 27853
[5] = test system: Acinetobacter baumannii NCTC 13420; assay: as above; format: cell-based; conditions: NCTC13420; Acinetobacter baumannii NCTC 13420; 16-20 h; mode of three independent experiments; read-out: MIC, Ab NCTC 13420
[6] = test system: Escherichia coli ATCC 25922; assay: as above; format: cell-based; conditions: ATCC25922; Escherichia coli ATCC 25922; 16-20 h; mode of three independent experiments; read-out: MIC, Ec ATCC 25922
[7] = test system: Streptococcus pneumoniae ATCC 49619; assay: as above; format: cell-based; conditions: ATCC49619; Streptococcus pneumoniae ATCC 49619; 16-20 h; mode of three independent experiments; read-out: MIC, Sp ATCC 49619
[8] = test system: Enterobacter cloacae NCTC 13406; assay: as above; format: cell-based; conditions: NCTC13406; Enterobacter cloacae NCTC 13406; 16-20 h; mode of three independent experiments; read-out: MIC, Ecl NCTC 13406

O=C1COc2ccc(N3C(=O)O[C@@H]4C[C@@H](NCCn5c(=O)cnc6ccc(F)cc65)CC[C@@H]43)nc2N1 [Compound 26, 1-(2-{[(3aS,6S,7aR)-2-oxo-3-{3-oxo-2H,3H,4H-pyrido[3,2-b][1,4]oxazin-6-yl}-octahydro-1,3-benzoxazol-6-yl]amino}ethyl)-7-fluoro-1,2-dihydroquinoxalin-2-one]
MIC [1]: < 1 µg/mL
MIC [2]: < 1 µg/mL
IC50 [3]: > 100 µg/mL
MIC [4]: 1 to 10 µg/mL (≈ 2.02 to 20.2 µM)
MIC [5]: < 1 µg/mL
MIC [6]: < 1 µg/mL
MIC [7]: < 1 µg/mL
MIC [8]: 1 to 10 µg/mL (≈ 2.02 to 20.2 µM)

O=C1COc2ccc(N3C(=O)O[C@@H]4C[C@@H](NCCn5c(=O)ccc6ncc(F)cc65)CC[C@@H]43)nc2N1 [Compound 28, 1-(2-{[(3aS,6S,7aR)-2-oxo-3-{3-oxo-2H,3H,4H-pyrido[3,2-b][1,4]oxazin-6-yl}-octahydro-1,3-benzoxazol-6-yl]amino}ethyl)-7-fluoro-1,2-dihydro-1,5-naphthyridin-2-one]
MIC [1]: 1 to 10 µg/mL (≈ 2.02 to 20.2 µM)
MIC [2]: < 1 µg/mL
IC50 [3]: > 100 µg/mL
MIC [4]: 1 to 10 µg/mL (≈ 2.02 to 20.2 µM)
MIC [5]: 1 to 10 µg/mL (≈ 2.02 to 20.2 µM)
MIC [6]: < 1 µg/mL
MIC [7]: < 1 µg/mL
MIC [8]: 1 to 10 µg/mL (≈ 2.02 to 20.2 µM)

CN(C)CCOc1ccc2ccc(=O)n(CCN[C@@H]3CC[C@@H]4[C@@H](C3)OC(=O)N4c3ccc4c(n3)NC(=O)CO4)c2c1 [Compound 32, 1-(2-{[(3aR,6R,7aR)-2-oxo-3-{3-oxo-2H,3H,4H-pyrido[3,2-b][1,4]oxazin-6-yl}-octahydro-1,3-benzoxazol-6-yl]amino}ethyl)-7-[2-(dimethylamino)ethoxy]-1,2-dihydroquinolin-2-one]
MIC [1]: 10 to 100 µg/mL (≈ 17.8 to 178 µM)
MIC [2]: 1 to 10 µg/mL (≈ 1.78 to 17.8 µM)
IC50 [3]: > 100 µg/mL
MIC [4]: 1 to 10 µg/mL (≈ 1.78 to 17.8 µM)
MIC [5]: > 100 µg/mL
MIC [6]: 1 to 10 µg/mL (≈ 1.78 to 17.8 µM)
MIC [7]: 1 to 10 µg/mL (≈ 1.78 to 17.8 µM)
MIC [8]: 10 to 100 µg/mL (≈ 17.8 to 178 µM)

COc1ccc2ccc(=O)n(CCN[C@H]3CC[C@H]4[C@H](C3)OC(=O)N4c3ccc4c(n3)NC(=O)C(C)(C)O4)c2n1 [Compound 48, 1-(2-{[(3aS,6S,7aS)-3-{2,2-dimethyl-3-oxo-2H,3H,4H-pyrido[3,2-b][1,4]oxazin-6-yl}-2-oxo-octahydro-1,3-benzoxazol-6-yl]amino}ethyl)-7-methoxy-1,2-dihydro-1,8-naphthyridin-2-one]
MIC [1]: 1 to 10 µg/mL (≈ 1.87 to 18.7 µM)
MIC [2]: < 1 µg/mL
IC50 [3]: > 100 µg/mL
MIC [4]: 10 to 100 µg/mL (≈ 18.7 to 187 µM)
MIC [5]: < 1 µg/mL
MIC [6]: 1 to 10 µg/mL (≈ 1.87 to 18.7 µM)
MIC [7]: < 1 µg/mL
MIC [8]: 10 to 100 µg/mL (≈ 18.7 to 187 µM)

COc1ccc2ccc(=O)n(CCN[C@@H]3CC[C@@H]4[C@@H](C3)OC(=O)N4c3cc4c(nn3)OCCO4)c2n1 [Compound 49, 1-(2-{[(3aR,6R,7aR)-3-{6H,7H-[1,4]dioxino[2,3-c]pyridazin-3-yl}-2-oxo-octahydro-1,3-benzoxazol-6-yl]amino}ethyl)-7-methoxy-1,2-dihydro-1,8-naphthyridin-2-one]
MIC [1]: 10 to 100 µg/mL (≈ 20.2 to 202 µM)
MIC [2]: < 1 µg/mL
IC50 [3]: > 100 µg/mL
MIC [4]: 10 to 100 µg/mL (≈ 20.2 to 202 µM)
MIC [5]: 10 to 100 µg/mL (≈ 20.2 to 202 µM)
MIC [6]: 10 to 100 µg/mL (≈ 20.2 to 202 µM)
MIC [7]: < 1 µg/mL
MIC [8]: > 100 µg/mL

N#Cc1cnc2ccc(=O)n(CCN[C@@H]3CC[C@@H]4[C@@H](C3)OC(=O)N4c3ccc4c(n3)NC(=O)CO4)c2c1 [Compound 50, 5-(2-{[(3aR,6R,7aR)-2-oxo-3-{3-oxo-2H,3H,4H-pyrido[3,2-b][1,4]oxazin-6-yl}-octahydro-1,3-benzoxazol-6-yl]amino}ethyl)-6-oxo-5,6-dihydro-1,5-naphthyridine-3-carbonitrile]
MIC [1]: < 1 µg/mL
MIC [2]: < 1 µg/mL
IC50 [3]: > 100 µg/mL
MIC [4]: < 1 µg/mL
MIC [5]: 1 to 10 µg/mL (≈ 1.99 to 19.9 µM)
MIC [6]: < 1 µg/mL
MIC [7]: < 1 µg/mL
MIC [8]: 1 to 10 µg/mL (≈ 1.99 to 19.9 µM)

COc1cnc2ccc(=O)n(CCN(C)[C@H]3CC[C@H]4[C@@H](C3)OC(=O)N4c3ccc4c(n3)NC(=O)CO4)c2c1 [Compound 51, 1-(2-{[(3aS,6S,7aR)-2-oxo-3-{3-oxo-2H,3H,4H-pyrido[3,2-b][1,4]oxazin-6-yl}-octahydro-1,3-benzoxazol-6-yl](methyl)amino}ethyl)-7-methoxy-1,2-dihydro-1,5-naphthyridin-2-one]
MIC [1]: < 1 µg/mL
MIC [2]: < 1 µg/mL
IC50 [3]: > 100 µg/mL
MIC [4]: 1 to 10 µg/mL (≈ 1.92 to 19.2 µM)
MIC [5]: 1 to 10 µg/mL (≈ 1.92 to 19.2 µM)
MIC [6]: 1 to 10 µg/mL (≈ 1.92 to 19.2 µM)
MIC [7]: < 1 µg/mL
MIC [8]: 1 to 10 µg/mL (≈ 1.92 to 19.2 µM)

CSc1ncc2ccc(=O)n(CCN[C@H]3CC[C@H]4[C@@H](C3)OC(=O)N4c3ccc4c(n3)NC(=O)CO4)c2n1 [Compound 53, (3aS,6S,7aR)-6-({2-[2-(methylsulfanyl)-7-oxo-7H,8H-pyrido[2,3-d]pyrimidin-8-yl]ethyl}amino)-3-{3-oxo-2H,3H,4H-pyrido[3,2-b][1,4]oxazin-6-yl}-octahydro-1,3-benzoxazol-2-one]
MIC [1]: 1 to 10 µg/mL (≈ 1.91 to 19.1 µM)
MIC [2]: < 1 µg/mL
IC50 [3]: > 100 µg/mL
MIC [4]: 10 to 100 µg/mL (≈ 19.1 to 191 µM)
MIC [5]: 1 to 10 µg/mL (≈ 1.91 to 19.1 µM)
MIC [6]: 1 to 10 µg/mL (≈ 1.91 to 19.1 µM)
MIC [7]: 1 to 10 µg/mL (≈ 1.91 to 19.1 µM)
MIC [8]: 10 to 100 µg/mL (≈ 19.1 to 191 µM)

CN(CCn1c(=O)ccc2ccc(OCCN)cc21)[C@@H]1CC[C@@H]2[C@@H](C1)OC(=O)N2c1ccc2c(n1)NC(=O)CO2 [Compound 54]
MIC [1]: 1 to 10 µg/mL (≈ 1.82 to 18.2 µM)
MIC [2]: < 1 µg/mL
IC50 [3]: > 100 µg/mL
MIC [4]: 1 to 10 µg/mL (≈ 1.82 to 18.2 µM)
MIC [5]: 1 to 10 µg/mL (≈ 1.82 to 18.2 µM)
MIC [6]: < 1 µg/mL
MIC [7]: < 1 µg/mL
MIC [8]: 1 to 10 µg/mL (≈ 1.82 to 18.2 µM)

O=C1COc2cnc(N3C(=O)O[C@@H]4C[C@@H](NCCn5c(=O)cnc6cc(F)c(F)cc65)CC[C@@H]43)nc2N1 [Compound 65, 1-(2-{[(3aS,6S,7aR)-2-oxo-3-{7-oxo-6H,7H,8H-pyrimido[5,4-b][1,4]oxazin-2-yl}-octahydro-1,3-benzoxazol-6-yl]amino}ethyl)-6,7-difluoro-1,2-dihydroquinoxalin-2-one]
MIC [1]: 1 to 10 µg/mL (≈ 1.95 to 19.5 µM)
MIC [2]: < 1 µg/mL
IC50 [3]: > 100 µg/mL
MIC [4]: 10 to 100 µg/mL (≈ 19.5 to 195 µM)
MIC [5]: 10 to 100 µg/mL (≈ 19.5 to 195 µM)
MIC [6]: 1 to 10 µg/mL (≈ 1.95 to 19.5 µM)
MIC [7]: < 1 µg/mL
MIC [8]: 1 to 10 µg/mL (≈ 1.95 to 19.5 µM)

O=C1COc2cnc(N3C(=O)O[C@H]4C[C@@H](NCCn5c(=O)cnc6cc(F)c(F)cc65)CC[C@@H]43)nc2N1 [Compound 66, 1-(2-{[(3aS,6S,7aS)-2-oxo-3-{7-oxo-6H,7H,8H-pyrimido[5,4-b][1,4]oxazin-2-yl}-octahydro-1,3-benzoxazol-6-yl]amino}ethyl)-6,7-difluoro-1,2-dihydroquinoxalin-2-one]
MIC [1]: 1 to 10 µg/mL (≈ 1.95 to 19.5 µM)
MIC [2]: < 1 µg/mL
IC50 [3]: > 100 µg/mL
MIC [4]: > 100 µg/mL
MIC [5]: 1 to 10 µg/mL (≈ 1.95 to 19.5 µM)
MIC [6]: 1 to 10 µg/mL (≈ 1.95 to 19.5 µM)
MIC [7]: < 1 µg/mL
MIC [8]: 10 to 100 µg/mL (≈ 19.5 to 195 µM)

N#Cc1ccc(-c2cccc(CN[C@H]3CC[C@H]4[C@H](C3)OC(=O)N4c3ccc4c(n3)NC(=O)CO4)c2)nc1 [Compound 71, 6-[3-({[(3aS,6S,7aS)-2-oxo-3-{3-oxo-2H,3H,4H-pyrido[3,2-b][1,4]oxazin-6-yl}-octahydro-1,3-benzoxazol-6-yl]amino}methyl)phenyl]pyridine-3-carbonitrile]
MIC [1]: 1 to 10 µg/mL (≈ 2.01 to 20.1 µM)
MIC [2]: < 1 µg/mL
IC50 [3]: 10 to 100 µg/mL (≈ 20.1 to 201 µM)
MIC [4]: 10 to 100 µg/mL (≈ 20.1 to 201 µM)
MIC [5]: 1 to 10 µg/mL (≈ 2.01 to 20.1 µM)
MIC [6]: < 1 µg/mL
MIC [7]: 1 to 10 µg/mL (≈ 2.01 to 20.1 µM)
MIC [8]: 1 to 10 µg/mL (≈ 2.01 to 20.1 µM)
